Laboratory results: US10407408B2, “Imide derivatives and use thereof as medicine” (MITSUBISHI TANABE PHARMA CORPORATION, priority 2015, dated 2019)
Structures can show the parent of a compound that is named as a salt.

These molecules were tested on proMMP-9 production by human TNFα stimulated THP-1 cell (assay: Action on proMMP-9 production by human TNFα stimulated THP-1 cell (ELISA of culture supernatant)). Conditions: THP-1 cells, human TNFα 10 ng/mL, 24 hr; IC50 from 3 concentrations (5, 50, 500 or 1, 10, 100 nmol/L); read-out: proMMP-9 suppression rate IC50.
Type: cell-based
Method: Experimental Example 1: Action of Human TNFα Stimulated THP-1 Cell on proMMP-9 Production
THP-1 cell (human monocytic leukemia cell line) was adjusted to 1×10^7 cells/mL in a culture medium (10% fetal bovine serum/RPMI1640 medium), and dispensed to a 96 well multiplate. This was equilibrated under the conditions of 37° C./5% CO2, and a culture medium containing human TNFα (final concentration 10 ng/mL) and a test compound was dissolved therein. After incubation under the conditions of 37° C./5% CO2 for 24 hr, the culture medium was centrifuged and the culture supernatant was collected, which was subjected to the following measurement.
Quantification of proMMP-9 in Culture Supernatant
The proMMP-9 concentration of the collected culture supernatant was quantified using a commercially available measurement reagent (manufactured by GE Healthcare, MMP-9, Human, Biotrak ELISA System).
Calculation of proMMP-9 Suppression Rate
The proMMP-9 suppression rate of the test compound was calculated from the following formula: % suppression=100−((Test−Min)/(Max−Min)×100) wherein Max is proMMP-9 concentration of culture supernatant induced by stimulation with human TNFα, without addition of a test compound (added with solvent alone) Min is proMMP-9 concentration of culture supernatant without addition of a test compound (added with solvent alone) and without stimulation with human TNFα, and Test is proMMP-9 concentration of culture supernatant induced by stimulation with human TNFα when a test compound is added.
Furthermore, the concentration of the test compound necessary for suppressing proMMP-9 production by human TNFα stimulated THP-1 cell by 50% (IC50 value) was calculated from 3 points of proMMP-9 suppression rate at test compound concentrations of 5, 50 and 500 nmol/L or 1, 10 and 100 nmol/L.
MMP-9 is produced as a precursor proMMP-9 by the stimulated cells, extracellularly activated and expresses the physiological activity as MMP-9. That is, evaluation of the suppression of proMMP-9 produced by the cell means evaluation of the suppression of production of MMP-9. The same applies to MMP-2, and evaluation of the suppression of proMMP-2 produced by the cell means evaluation of the suppression of production of MMP-2.

| Structure (SMILES) | IC50 [nM] |
| --- | --- |
| COC(=O)[C@@H]1CN(c2ncc(C)cc2C)CCN1C(=O)c1ccc([C@@]2(C(C)C)NC(=O)NC2=O)cc1 [Example 64, (S)-4-(3,5-dimethylpyridin-2-yl)-1-[4-((R)-4-isopropyl-2,5-dioxoimidazolidin-4-yl)benzoyl]piperazine-2-carboxylic acid methyl ester] | 64 |
| Cc1cnc(N2CCN(C(=O)c3ccc(C4(C(C)C)NC(=O)NC4=O)s3)CC2)c(C)c1 (stereo not shown) [Example 114, 5-{5-[4-(3,5-dimethylpyridin-2-yl)piperazine-1-carbonyl]thiophen-2-yl}-5-isopropylimidazolidine-2,4-dione] | 82 |
| Cc1nnc(N2CCN(C(=O)c3ccc([C@@]4(C(C)C)NC(=O)NC4=O)cc3)CC2)c(C)c1C [Example 141, (R)-5-isopropyl-5-{4-[4-(4,5,6-trimethylpyridazin-3-yl)piperazine-1-carbonyl]phenyl}imidazolidine-2,4-dione] | 70 |
| CCC1(c2ccc(C(=O)N3CCC(c4cc(-c5ccc(C)cc5)[nH]n4)CC3)cn2)CC(=O)NC1=O (stereo not shown) [Example 165, 3-ethyl-3-{5-[4-(5-p-tolyl-1H-pyrazol-3-yl)piperidine-1-carbonyl}pyridin-2-yl}pyrrolidine-2,5-dione] | 90 |
| CC[C@]1(c2ccc(C(=O)N3CCC(c4nnn(-c5ccc(C)cc5)n4)CC3)cc2)NC(=O)NC1=O [Example 170, (R)-5-ethyl-5-{4-[4-(2-p-tolyl-2H-tetrazol-5-yl)piperidine-1-carbonyl]phenyl}imidazolidine-2,4-dione] | 60 |
| CC[C@]1(c2ccc(C(=O)N3CCC(c4cn(-c5ccc(C)cc5)cn4)CC3)cc2)NC(=O)NC1=O [Example 175, (R)-5-ethyl-5-{4-[4-(1-p-tolyl-1H-imidazol-4-yl)piperidine-1-carbonyl]phenyl}imidazolidine-2,4-dione] | 88 |
| Cc1cnc(N2CCN(C(=O)c3ccc(C4(C(C)C)C(=O)NC(=O)N4C)cc3)CC2)c(C)c1 (stereo not shown) [Example 182, 5-{4-[4-(3,5-dimethylpyridin-2-yl)piperazine-1-carbonyl]phenyl}-5-isopropyl-1-methylimidazolidine-2,4-dione] | 67 |
| Cc1cnc(NC2CN(C(=O)c3ccc([C@@]4(C(C)C)NC(=O)NC4=O)cc3)C2)c(C)c1 [Example 185, (R)-5-{4-[3-(3,5-dimethylpyridin-2-ylamino)azetidine-1-carbonyl]phenyl}-5-isopropylimidazolidine-2,4-dione.hydrochloride] | 82 |
| Cc1cnc2nc(C3CCN(C(=O)c4ccc([C@@]5(C(C)C)NC(=O)NC5=O)cc4)CC3)sc2c1 [Example 220, (R)-5-isopropyl-5-{4-[4-(6-methylthiazolo[4,5-b]pyridin-2-yl)piperidine-1-carbonyl]phenyl}imidazolidine-2,4-dione] | 55 |
| Cc1ccc2nc(C3CCN(C(=O)c4ccc([C@@]5(C(C)C)NC(=O)NC5=O)cc4)CC3)oc2n1 [Example 221, (R)-5-isopropyl-5-{4-[4-(5-methyloxazolo[5,4-b]pyridin-2-yl)piperidine-1-carbonyl]phenyl}imidazolidine-2,4-dione] | 72 |
| Cc1ccc2nc(C3CCN(C(=O)c4ccc([C@@]5(C(C)C)NC(=O)NC5=O)cc4)CC3)sc2n1 [Example 222, (R)-5-isopropyl-5-{4-[4-(5-methylthiazolo[5,4-b]pyridin-2-yl)piperidine-1-carbonyl]phenyl}imidazolidine-2,4-dione] | 76 |
| CC(C)[C@]1(c2ccc(C(=O)N3CCC(c4nnc(-c5ccccc5)s4)CC3)cc2)NC(=O)NC1=O [Example 227, (R)-5-isopropyl-5-{4-[4-(5-phenyl[1,3,4]thiadiazol-2-yl)piperidine-1-carbonyl]phenyl}imidazolidine-2,4-dione] | 84 |

Stronger by IC50, values ahead:

| IC50 [nM] | Structure (SMILES) |
| --- | --- |
| 6 | Cc1cnc(N2CCN(C(=O)c3ccc(C4(C(C)C)NC(=O)NC4=O)c(O)c3)CC2)c(C)c1 (stereo not shown) [Example 20, 5-{4-[4-(3,5-dimethylpyridin-2-yl)piperazine-1-carbonyl]-2-hydroxyphenyl}-5-isopropylimidazolidine-2,4-dione] |
| 16 | CC[C@]1(c2ccc(C(=O)N3CCC(c4cnn(-c5ccc(C)cc5)c4)CC3)cc2)NC(=O)NC1=O [Example 27, (R)-5-ethyl-5-{4-[4-(1-p-tolyl-1H-pyrazol-4-yl)piperidine-1-carbonyl]phenyl}imidazolidine-2,4-dione] |
| 9 | Cc1cnc(N2CCN(C(=O)c3ccc([C@@]4(C(C)C)NC(=O)NC4=O)cc3)C3(CCC3)C2)c(C)c1 [Example 65, (R)-5-{4-[8-(3,5-dimethylpyridin-2-yl)-5,8-diazaspiro[3.5]nonane-5-carbonyl]phenyl}-5-isopropylimidazolidine-2,4-dione] |
| < 5 | COCC1CN(C(=O)c2ccc([C@@]3(C(C)C)NC(=O)NC3=O)cc2)CCN1c1ncc(C)cc1C (stereo partly drawn) [Example 66, (R)-5-{4-[4-(3,5-dimethylpyridin-2-yl)-3-methoxymethylpiperazine-1-carbonyl]phenyl}-5-isopropylimidazolidine-2,4-dione] |
| 11 | Cc1cnc(N2CCN(C(=O)c3ccc(C4(CF)NC(=O)NC4=O)cc3)C(C)(C)C2)c(C)c1 (stereo not shown) [Example 69, 5-{4-[4-(3,5-dimethylpyridin-2-yl)-2,2-dimethylpiperazine-1-carbonyl]phenyl}-5-fluoromethylimidazolidine-2,4-dione] |
| 11 | Cc1cc(C)c(N2CCN(C(=O)c3ccc(C4(c5ccccc5)NC(=O)NC4=O)cc3)CC2)nc1C (stereo not shown) [Example 108, 5-phenyl-5-{4-[4-(3,5,6-trimethylpyridin-2-yl)piperazine-1-carbonyl]phenyl}imidazolidine-2,4-dione] |
| 11 | COC1(C2(c3ccc(C(=O)N4CCN(c5ncc(C)cc5C)CC4)cc3)NC(=O)NC2=O)CC1 (stereo not shown) [Example 112, 5-{4-[4-(3,5-dimethylpyridin-2-yl)piperazine-1-carbonyl]phenyl}-5-(1-methoxycyclopropyl) imidazolidine-2,4-dione] |
| 1 | CC[C@]1(c2ccc(C(=O)N3CCN(c4ncc(C)cc4C)CC3)cc2)NC(=O)NC1=O [Example 124, (R)-5-{4-[4-(3,5-dimethylpyridin-2-yl)piperazine-1-carbonyl]phenyl}-5-ethylimidazolidine-2,4-dione] |
| 8 | Cc1cc(C2(C)NC(=O)NC2=O)ccc1C(=O)N1CCN(c2nc(C)c(C)cc2C)CC1 (stereo not shown) [Example 126, 5-methyl-5-{3-methyl-4-[4-(3,5,6-trimethylpyridin-2-yl)piperazine-1-carbonyl]phenyl}imidazolidine-2,4-dione] |
| 14 | Cc1cnc(N2CCN(C(=O)c3ccc(C4(C(C)(C)C)NC(=O)NC4=O)cc3)CC2)c(C)n1 (stereo not shown) [Example 137, 5-tert-butyl-5-[4-(3′,5′-dimethyl-2,3,5,6-tetrahydro[1,2′]bipyrazinyl-4-carbonyl)phenyl]imidazolidine-2,4-dione] |
| 25 | Cc1ccc(C(=O)C2CCN(C(=O)c3ccc([C@@]4(C)NC(=O)NC4=O)cc3)CC2)cc1 [Example 150, (R)-5-methyl-5-{4-[4-(4-methylbenzoyl)piperidine-1-carbonyl]phenyl}imidazolidine-2,4-dione] |
| 14 | Cc1ccc(OC2CCN(C(=O)c3ccc([C@@]4(C)NC(=O)NC4=O)cc3)CC2)cc1 [Example 152, (R)-5-methyl-5-[4-(4-p-tolyloxypiperidine-1-carbonyl]phenyl}imidazolidine-2,4-dione] |
| 49 | Cc1cnc2c(c1)CCN2[C@H]1CCN(C(=O)c2ccc([C@@]3(C(C)C)NC(=O)NC3=O)cc2)C1 [Example 158, (R)-5-isopropyl-5-{4-[(S)-3-(5-methyl-2,3-dihydropyrrolo[2,3-b]pyridin-1-yl)pyrrolidine-1-carbonyl]phenyl}imidazolidine-2,4-dione] |
| 34 | CCC1(c2ccc(C(=O)N3CCC(c4cn(-c5ccc(C)cc5)nn4)CC3)cc2F)NC(=O)NC1=O (stereo not shown) [Example 178, 5-ethyl-5-{2-fluoro-4-[4-(1-p-tolyl-1H-[1,2,3]triazol-4-yl)piperidine-1-carbonyl]phenyl}imidazolidine-2,4-dione] |
| 19 | Cc1cnc(N[C@@H]2CN(C(=O)c3ccc([C@@]4(C(C)C)NC(=O)NC4=O)cc3)C[C@H]2O)c(C)c1 [Example 187, (R)-5-{4-[(3R,4R)-3-(3,5-dimethylpyridin-2-ylamino)-4-hydroxypyrrolidine-1-carbonyl]phenyl}-5-isopropylimidazolidine-2,4-dione] |
| 2 | Cc1cnc(N[C@H]2C[C@@H](C#N)N(C(=O)c3ccc([C@@]4(C(C)C)NC(=O)NC4=O)cc3)C2)c(C)c1 [Example 198, (2S,4S)-4-(3,5-dimethylpyridin-2-ylamino)-1-[4-((R)-4-isopropyl-2,5-dioxoimidazolidin-4-yl)benzoyl]pyrrolidine-2-carbonitrile] |
